What was measured:
Assay in all cases: relative viability (nuclei count vs DMSO), 5 days (fraction); higher = more cells survive
Venetoclax + Pemetrexed = compound: CC1(C)CCC(CN2CCN(c3ccc(C(=O)NS(=O)(=O)c4ccc(NCC5CCOCC5)c([N+](=O)[O-])c4)c(Oc4cnc5[nH]ccc5c4)c3)CC2)=C(c2ccc(Cl)cc2)C1 [Venetoclax] + Nc1nc2[nH]cc(CCc3ccc(C(=O)N[C@@H](CCC(=O)O)C(=O)O)cc3)c2c(=O)[nH]1 [Pemetrexed] (partner 0.2 µM)
In short: (§1)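 Relative viability is defined as nuclei in treated wells over nuclei in vehicle wells. Duplicate plates were run and medians reported. Lung cancer cell lines in 1536-well plates were dosed by pin tool one day after seeding, with one drug or with a fixed anchor-drug dose plus five library-drug doses (not always all listed) in √10 steps, and nuclei were counted after 5 days.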

Selumetinib + Trametinib = compound: Cn1cnc2c(F)c(Nc3ccc(Br)cc3Cl)c(C(=O)NOCCO)cc21 [Selumetinib] + CC(=O)Nc1cccc(-n2c(=O)n(C3CC3)c(=O)c3c(Nc4ccc(I)cc4F)n(C)c(=O)c(C)c32)c1 [Trametinib] (partner 0.02 µM)
In short: as §1

Selumetinib + Foretinib = compound: Cn1cnc2c(F)c(Nc3ccc(Br)cc3Cl)c(C(=O)NOCCO)cc21 [Selumetinib] + COc1cc2c(Oc3ccc(NC(=O)C4(C(=O)Nc5ccc(F)cc5)CC4)cc3F)ccnc2cc1OCCCN1CCOCC1 [Foretinib] (partner 0.25 µM)
In short: as §1

Selumetinib + Pemetrexed = compound: Cn1cnc2c(F)c(Nc3ccc(Br)cc3Cl)c(C(=O)NOCCO)cc21 [Selumetinib] + Nc1nc2[nH]cc(CCc3ccc(C(=O)N[C@@H](CCC(=O)O)C(=O)O)cc3)c2c(=O)[nH]1 [Pemetrexed] (partner 0.2 µM)
In short: as §1

Cell Line	relative viability (Venetoclax + Pemetrexed; first compound 0.01 µM)	relative viability (Venetoclax + Pemetrexed; first compound 0.03162 µM)	relative viability (Venetoclax + Pemetrexed; first compound 0.1 µM)	relative viability (Venetoclax + Pemetrexed; first compound 0.3162 µM)	relative viability (Venetoclax + Pemetrexed; first compound 1 µM)	relative viability (Selumetinib + Trametinib; first compound 0.02 µM)	relative viability (Selumetinib + Trametinib; first compound 0.06325 µM)	relative viability (Selumetinib + Trametinib; first compound 0.2 µM)	relative viability (Selumetinib + Trametinib; first compound 0.6325 µM)	relative viability (Selumetinib + Foretinib; first compound 0.02 µM)	relative viability (Selumetinib + Foretinib; first compound 0.06325 µM)	relative viability (Selumetinib + Foretinib; first compound 0.2 µM)	relative viability (Selumetinib + Foretinib; first compound 0.6325 µM)	relative viability (Selumetinib + Pemetrexed; first compound 0.02 µM)	relative viability (Selumetinib + Pemetrexed; first compound 0.06325 µM)	relative viability (Selumetinib + Pemetrexed; first compound 0.2 µM)	relative viability (Selumetinib + Pemetrexed; first compound 0.6325 µM)
NCI-H23	0.671	0.747	0.597	0.76	0.588	0.4	0.402	0.322	0.331	0.952	0.916	0.654	0.612	0.811	0.43	0.465	0.529
NCI-H1355	1.02	1.08	1.01	1.08	1.01	0.407	0.459	0.464	0.416	0.954	0.847	0.539	0.625	1.01	0.881	0.898	0.788
NCI-H2085	0.756	0.948	0.86	0.823	0.798	0.545	0.62	0.398	0.513	0.728	0.829	0.536	0.567	0.77	0.789	0.677	0.627
SW 900	0.478	0.51	0.465	0.499	0.489	0.68	0.764	0.875	0.675	0.876	0.78	0.783	0.92	0.474	0.449	0.454	0.441
NCI-H322M	0.606	0.581	0.598	0.627	0.596	0.458	0.508	0.496	0.512	0.853	0.782	0.704	0.757	0.546	0.524	0.564	0.562
NCI-H1915	0.405	0.499	0.484	0.517	0.476	0.311	0.302	0.288	0.257	1.16	1.03	0.812	0.529	0.519	0.449	0.533	0.373
HCC-827	0.239	0.289	0.25	0.269	0.28	0.528	0.554	0.541	0.549	0.942	0.983	0.989	0.86	0.25	0.277	0.269	0.288
LXF-289	0.986	0.948	0.782	0.873	0.79	0.717	0.616	0.673	0.701	0.939	0.867	0.738	0.737	0.865	0.848	0.763	0.808
LC-2-ad	0.283	0.27	0.256	0.262	0.259	0.954	0.88	0.822	0.9	0.828	0.722	0.643	0.533	0.263	0.269	0.273	0.277
NCI-H441	0.274	0.271	0.243	0.253	0.244	0.457	0.429	0.573	0.455	0.964	0.839	0.903	0.667	0.283	0.248	0.275	0.308
HOP-62	0.356	0.335	0.287	0.313	0.355	0.372	0.358	0.404	0.332	1.06	1.02	0.807	0.504	0.31	0.382	0.348	0.321
NCI-H2009	0.989	1.04	1.05	1	0.961	0.285	0.273	0.29	0.257	0.965	0.87	0.511	0.337	1.03	0.945	0.792	0.45
NCI-H1755	0.39	0.475	0.397	0.441	0.407	0.78	0.753	0.778	0.752	0.874	0.807	0.824	0.847	0.467	0.409	0.428	0.509
NCI-H520	0.781	0.73		0.626	0.646	0.826	0.677	0.749	0.776	0.746	0.759	1.02	0.758	0.654	0.754	0.752	0.731
LOU-NH91	0.362	0.365	0.392	0.327	0.337	0.773	0.761	0.818	0.824	0.87	0.859	0.834	0.738	0.438	0.397	0.458	0.385
LU99A	0.177	0.239	0.163	0.172	0.178	0.505	0.649	0.512	0.481	0.898	0.729	0.83	0.699	0.195	0.184	0.184	0.245
PC-14	0.154	0.135	0.13	0.14	0.143	0.847	0.74	0.732	0.604	0.97	0.886	0.819	0.881	0.123	0.114	0.107	0.127
NCI-H2126	0.748	0.737	0.67	0.653	0.611	0.569	0.574	0.6	0.622	1.13	0.993	1.05	0.933	0.627	0.612	0.684	0.568
